System: 299254-011-R-J1-PDC complex spheroid viability
Experiment: Anticancer human tumor 299254-011-R-J1-PDC patient-derived melanoma cell line growth inhibition [POLQ]
Conditions: for IC50: curve of first compound; for viability, T/C: stronger effect = lower value
Outline: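 Growth inhibition in 3D: complex spheroids (tumor PDC, HUVEC, MSC) treated with POLQ inhibitor combinations; where Cmax unknown, highest tested concentration 10 microM, except SN-38 at 1 microM.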

[1] = second compound 0.0316 µM, first compound 0.0316 µM
[2] = second compound 0.0316 µM, first compound 0.1 µM
[3] = second compound 0.0316 µM, first compound 0.316 µM
[4] = second compound 0.0316 µM, first compound 1 µM
[5] = second compound 0.0316 µM, first compound 3.16 µM
[6] = second compound 0.0316 µM, first compound 10 µM
[7] = second compound 0.1 µM, first compound 0.0316 µM
[8] = second compound 0.1 µM, first compound 0.1 µM
[9] = second compound 0.1 µM, first compound 0.316 µM
[10] = second compound 0.1 µM, first compound 1 µM
[11] = second compound 0.1 µM, first compound 3.16 µM
[12] = second compound 0.1 µM, first compound 10 µM
[13] = second compound 0.316 µM, first compound 0.0316 µM
[14] = second compound 0.316 µM, first compound 0.1 µM
[15] = second compound 0.316 µM, first compound 0.316 µM
[16] = second compound 0.316 µM, first compound 1 µM
[17] = second compound 0.316 µM, first compound 3.16 µM
[18] = second compound 0.316 µM, first compound 10 µM
[19] = second compound 1 µM, first compound 0.0316 µM
[20] = second compound 1 µM, first compound 0.1 µM
[21] = second compound 1 µM, first compound 0.316 µM
[22] = second compound 1 µM, first compound 1 µM
[23] = second compound 1 µM, first compound 3.16 µM
[24] = second compound 1 µM, first compound 10 µM
[25] = second compound 3.16 µM, first compound 0.0316 µM
[26] = second compound 3.16 µM, first compound 0.1 µM
[27] = second compound 3.16 µM, first compound 0.316 µM
[28] = second compound 3.16 µM, first compound 1 µM
[29] = second compound 3.16 µM, first compound 3.16 µM
[30] = second compound 3.16 µM, first compound 10 µM
[31] = second compound 10 µM, first compound 0.0316 µM
[32] = second compound 10 µM, first compound 0.1 µM
[33] = second compound 10 µM, first compound 0.316 µM
[34] = second compound 10 µM, first compound 1 µM
[35] = second compound 10 µM, first compound 3.16 µM
[36] = second compound 10 µM, first compound 10 µM
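Note: spheroids exposed to drugs for one week before measurement.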
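Throughout, for viability, T/C: percent viability relative to DMSO vehicle control taken as 100%.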

SMILES: CCCS(=O)(=O)Nc1ccc(F)c(C(=O)c2c[nH]c3ncc(-c4ccc(Cl)cc4)cc23)c1F + Cc1cccc(N(C)C(=O)C2C(O)CCN2c2nc(C)cc(C(F)(F)F)c2C#N)c1
- IC50 (second compound 0.0316 µM): > 10 µM
- IC50 (second compound 0.1 µM): 8.99 µM
- IC50 (second compound 0.316 µM): 9.29 µM
- IC50 (second compound 1 µM): 9.29 µM
- IC50 (second compound 3.16 µM): > 10 µM
- IC50 (second compound 10 µM): > 10 µM
- viability, T/C [1]: 117%
- viability, T/C [2]: 95.7%
- viability, T/C [3]: 119%
- viability, T/C [4]: 109%
- viability, T/C [5]: 123%
- viability, T/C [6]: 50%
- viability, T/C [7]: 104%
- viability, T/C [8]: 107%
- viability, T/C [9]: 109%
- viability, T/C [10]: 114%
- viability, T/C [11]: 115%
- viability, T/C [12]: 44%
- viability, T/C [13]: 107%
- viability, T/C [14]: 112%
- viability, T/C [15]: 104%
- viability, T/C [16]: 110%
- viability, T/C [17]: 103%
- viability, T/C [18]: 46.3%
- viability, T/C [19]: 93.1%
- viability, T/C [20]: 103%
- viability, T/C [21]: 103%
- viability, T/C [22]: 107%
- viability, T/C [23]: 109%
- viability, T/C [24]: 46.4%
- viability, T/C [25]: 110%
- viability, T/C [26]: 124%
- viability, T/C [27]: 108%
- viability, T/C [28]: 108%
- viability, T/C [29]: 117%
- viability, T/C [30]: 52.6%
- viability, T/C [31]: 100%
- viability, T/C [32]: 110%
- viability, T/C [33]: 113%
- viability, T/C [34]: 107%
- viability, T/C [35]: 110%
- viability, T/C [36]: 52.4%

SMILES: COc1ccc([C@@H](O)c2cc(-c3ncnc4cc(N5CCOCC5)ccc34)c(F)cc2Cl)nn1 + Cc1cccc(N(C)C(=O)C2C(O)CCN2c2nc(C)cc(C(F)(F)F)c2C#N)c1
- IC50 (second compound 0.0316 µM): > 10 µM
- IC50 (second compound 0.1 µM): > 10 µM
- IC50 (second compound 0.316 µM): 8.36 µM
- IC50 (second compound 1 µM): 8.8 µM
- IC50 (second compound 3.16 µM): 6.8 µM
- IC50 (second compound 10 µM): 5.75 µM
- viability, T/C [1]: 105%
- viability, T/C [2]: 102%
- viability, T/C [3]: 96.7%
- viability, T/C [4]: 99%
- viability, T/C [5]: 87.9%
- viability, T/C [6]: 49.6%
- viability, T/C [7]: 90.1%
- viability, T/C [8]: 89.2%
- viability, T/C [9]: 112%
- viability, T/C [10]: 92.5%
- viability, T/C [11]: 95.9%
- viability, T/C [12]: 53.4%
- viability, T/C [13]: 101%
- viability, T/C [14]: 108%
- viability, T/C [15]: 97.9%
- viability, T/C [16]: 86.2%
- viability, T/C [17]: 82.1%
- viability, T/C [18]: 43.6%
- viability, T/C [19]: 108%
- viability, T/C [20]: 97.6%
- viability, T/C [21]: 104%
- viability, T/C [22]: 111%
- viability, T/C [23]: 82.6%
- viability, T/C [24]: 46%
- viability, T/C [25]: 102%
- viability, T/C [26]: 102%
- viability, T/C [27]: 100%
- viability, T/C [28]: 90.2%
- viability, T/C [29]: 77.8%
- viability, T/C [30]: 36.5%
- viability, T/C [31]: 94.6%
- viability, T/C [32]: 82.8%
- viability, T/C [33]: 109%
- viability, T/C [34]: 88.5%
- viability, T/C [35]: 66%
- viability, T/C [36]: 35.3%

SMILES: Cn1ncnc1[C@H]1c2n[nH]c(=O)c3cc(F)cc(c23)N[C@@H]1c1ccc(F)cc1 + Cc1cccc(N(C)C(=O)C2C(O)CCN2c2nc(C)cc(C(F)(F)F)c2C#N)c1
- IC50 (second compound 0.0316 µM): > 0.1 µM
- IC50 (second compound 0.1 µM): > 0.1 µM
- IC50 (second compound 0.316 µM): > 0.1 µM
- IC50 (second compound 1 µM): > 0.1 µM
- IC50 (second compound 3.16 µM): > 0.1 µM
- IC50 (second compound 10 µM): > 0.1 µM
- viability, T/C (second compound 0.0316 µM, first compound 0.000316 µM): 102%
- viability, T/C (second compound 0.0316 µM, first compound 0.001 µM): 91.6%
- viability, T/C (second compound 0.0316 µM, first compound 0.00316 µM): 95.9%
- viability, T/C (second compound 0.0316 µM, first compound 0.01 µM): 110%
- viability, T/C [1]: 112%
- viability, T/C [2]: 113%
- viability, T/C (second compound 0.1 µM, first compound 0.000316 µM): 119%
- viability, T/C (second compound 0.1 µM, first compound 0.001 µM): 108%
- viability, T/C (second compound 0.1 µM, first compound 0.00316 µM): 117%
- viability, T/C (second compound 0.1 µM, first compound 0.01 µM): 106%
- viability, T/C [7]: 114%
- viability, T/C [8]: 119%
- viability, T/C (second compound 0.316 µM, first compound 0.000316 µM): 108%
- viability, T/C (second compound 0.316 µM, first compound 0.001 µM): 96.4%
- viability, T/C (second compound 0.316 µM, first compound 0.00316 µM): 102%
- viability, T/C (second compound 0.316 µM, first compound 0.01 µM): 114%
- viability, T/C [13]: 106%
- viability, T/C [14]: 102%
- viability, T/C (second compound 1 µM, first compound 0.000316 µM): 111%
- viability, T/C (second compound 1 µM, first compound 0.001 µM): 116%
- viability, T/C (second compound 1 µM, first compound 0.00316 µM): 103%
- viability, T/C (second compound 1 µM, first compound 0.01 µM): 114%
- viability, T/C [19]: 102%
- viability, T/C [20]: 94.1%
- viability, T/C (second compound 3.16 µM, first compound 0.000316 µM): 90.1%
- viability, T/C (second compound 3.16 µM, first compound 0.001 µM): 109%
- viability, T/C (second compound 3.16 µM, first compound 0.00316 µM): 103%
- viability, T/C (second compound 3.16 µM, first compound 0.01 µM): 111%
- viability, T/C [25]: 122%
- viability, T/C [26]: 114%
- viability, T/C (second compound 10 µM, first compound 0.000316 µM): 93.6%
- viability, T/C (second compound 10 µM, first compound 0.001 µM): 107%
- viability, T/C (second compound 10 µM, first compound 0.00316 µM): 113%
- viability, T/C (second compound 10 µM, first compound 0.01 µM): 94%
- viability, T/C [31]: 98%
- viability, T/C [32]: 99%
